Data reported in patent US20220096706A1, “ELECTROSPUN NANOFIBER-BASED DRESSINGS AND METHODS OF MANUFACTURE AND USE THEREOF” (BOARD OF REGENTS OF THE UNIVERSITY OF NEBRASKA, priority 2019, published 2022).
Non-standard residues stand in square brackets, D forms with d. No end group written: not given here. Bip = N[C@@H](Cc1ccc(-c2ccccc2)cc1)C(=O)O

Tests used:
[1] = in biofilm; Lawrence, et al. (1994); cited from earlier work
[2] = system: resistant ESKAPE pathogens, including persisters and biofilms; settings: cited from earlier work
[3] = system: Staphylococcus aureus USA300; settings: cited from earlier work
S. aureus USA300 = settings: compared to either LL-37 or GF-17; cited from earlier work
MRSA USA300 biofilm = format: in vivo, type II diabetic mice; settings: 24 hours MRSA inoculation and subsequent 24 hour mupirocin 2% treatment
Method: Briefly, MRSA was grown in TSB overnight. Subsequently, 100 μL bacterial strain was pipetted into 4 mL fresh TSB medium for 3 hours followed by PBS washing for three times. Then, the bacterial concentration was adjusted to 1×10^8 CFU/mL and stored in the ice box before use. One hundred female 005314-TALLYHO/JngJ diabetic defective mice (10-11 weeks, 30-35 g, GLU>200 mg/dL) fed with standard pellet diet and water were used.
The biofilm was established in 005314-TALLYHO/JngJ mice excisional wounds. Two 6 mm-diameter full thickness wounds were created on the back of a mouse using a disposable biopsy punch (Integra Miltex®, Kai Medical, USA) and fixed with a wound splint (Grace Bio-labs, Inc, Bend, Oreg.). The wounds were all inoculated with 10 μL of 1×10^8 CFU/mL MRSA instantly after surgery, and mupirocin 2% was applied to treat the wounds at day 2 (24 hours after surgery). Then, the surrounding and wound tissue was collected using an 8 mm-diameter punch and the biofilm was confirmed by CFU count, LIVE/DEAD® staining and SEM observation.
The biofilm formation was performed as above-mentioned. The mice were then divided into control groups and peptide groups. Control groups' wounds were treated with 6-mm diameter F127-PCL core-shell nanofiber discs alone. […] All the dishes were inoculated in a 37° C. microbial incubator for 18 hours and the CFU numbers were counted. […]

MRSA = assay: Antibiotic agar inhibition (MRSA inhibition zone) test; format: cell-based, Staphylococcus aureus; settings: FIG. 6E
MRSA biofilms = assay: In vivo antibiofilm efficacy test, MRSA biofilm wounds (B6.BKS(D)-Leprdb/J mice); parameters: species or system type II diabetic mice; settings: 24 hours and 48 hours inoculation followed by 24 hour treatment of 2% mupirocin ointment
Method: A biofilm-containing chronic wound model was established. Briefly, MRSA was grown in TSB overnight. Subsequently, 100 μL of bacterial strain was pipetted into 4 mL of fresh TSB medium and cultivated for 3 hours followed by PBS washing for three times. Then, the bacterial concentration was adjusted to 1×10^8 CFU/mL and stored in the ice box before use. Nine […] 000697-B6.BKS(D)-Leprdb/J diabetic defective mice (male, 10-11 weeks, 50-55 g, GLU>200 mg/dL) fed with standard pellet diet and water were used.
The biofilm was established in 000697-B6.BKS(D)-Leprdb/J mice excisional wounds. […]
After the biofilm formation was performed, F127/17BIPHE2-PCL-S core-shell nanofiber membranes or Janus-type dressings were put on the wound, different dressing changes strategies were applied to treat the biofilm formed wound. […] All the dishes were inoculated in a 37° C. microbial incubator for 18 hours, and the CFU numbers were counted.
To further evaluate the anti-biofilm efficacy, MRSA biofilms were established in type II diabetic mice wounds (FIG. 21). […] The CFU of MRSA biofilms (10^10-10^12 CFU/g) formed after 24 hours and 48 hours of bacteria inoculation and removal of planktonic bacteria was quantified (FIG. 21B). […]

## RRRWWWWV; SEQ ID NO: 7 (Antimicrobial peptide) [W379, peptide with merely eight amino acids]
[1]
  diffusion coefficient of peptides (D): 3.1×10^−12 m^2/s
[2]
  antimicrobial activity against resistant ESKAPE pathogens: antimicrobial activity

## LL-37
[3]; Mishra, et al. (2016)
  inhibition of bacterial attachment / disruption of preformed biofilms: unable to inhibit bacterial attachment or disrupt preformed biofilms
[3]; in vitro, Haisma, et al. (2014)
  inhibition of biofilm growth of Staphylococcus aureus USA300: only at a low concentration

## GX1KRLVQRLKDX2LRNLV, wherein X1 and X2 are biphenylalanines (SEQ ID NO: 2) (G[Bip]KRLVQRLKD[Bip]LRNLV) [17BIPHE2, molecularly engineered human cathelicidin LL-37 peptide]
S. aureus USA300
  protection of wax moths from S. aureus USA300 infection: optimized protection

## C/C(=C\C(=O)OCCCCCCCCC(=O)O)C[C@@H]1OC[C@H](C[C@@H]2O[C@H]2[C@@H](C)[C@H](C)O)[C@@H](O)[C@H]1O [mupirocin 2%, mupirocin]
MRSA USA300 biofilm
  bacteria resided on surgical site and surrounding tissues: 10^10 CFU/g
MRSA
  killing of planktonic bacteria in antibiotic agar inhibition test: kill the planktonic bacteria very effectively
MRSA biofilms
  CFU of MRSA biofilms: 10^10-10^12 CFU/g
